ChEMBL document CHEMBL5465560, “Selectivity Literature for EUbOPEN Chemogenomic Library” (2024)
Each block holds one molecule with its values, some of them ahead of it.

Experiments:
[1] = target: T1, Protein kinase C epsilon type (Homo sapiens) (UniProt Q02156); assay: Selectivity interaction (KinomeScan (DiscoverX)) EUB0001049a PRKCE; conditions: at 1 µM
T1 sequence (whole entry): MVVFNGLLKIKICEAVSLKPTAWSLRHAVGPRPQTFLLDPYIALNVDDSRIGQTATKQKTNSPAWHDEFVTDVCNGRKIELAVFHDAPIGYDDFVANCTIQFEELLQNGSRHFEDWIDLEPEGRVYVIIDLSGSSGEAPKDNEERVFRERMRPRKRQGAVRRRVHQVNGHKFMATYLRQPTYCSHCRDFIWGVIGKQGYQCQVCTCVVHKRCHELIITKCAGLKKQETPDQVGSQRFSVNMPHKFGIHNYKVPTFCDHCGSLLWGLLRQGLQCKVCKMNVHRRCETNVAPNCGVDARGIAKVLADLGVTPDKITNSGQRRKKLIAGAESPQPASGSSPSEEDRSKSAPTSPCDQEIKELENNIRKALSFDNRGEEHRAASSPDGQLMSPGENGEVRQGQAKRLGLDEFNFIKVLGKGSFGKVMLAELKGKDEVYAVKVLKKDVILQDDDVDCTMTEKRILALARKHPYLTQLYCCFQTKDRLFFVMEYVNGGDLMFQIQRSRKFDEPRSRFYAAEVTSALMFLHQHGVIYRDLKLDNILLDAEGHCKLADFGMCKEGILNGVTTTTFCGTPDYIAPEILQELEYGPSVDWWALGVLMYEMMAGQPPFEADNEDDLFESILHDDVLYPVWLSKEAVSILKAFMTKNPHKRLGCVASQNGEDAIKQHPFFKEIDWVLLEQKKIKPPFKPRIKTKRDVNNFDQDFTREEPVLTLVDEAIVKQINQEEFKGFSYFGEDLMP

[2] = target: Serine/threonine-protein kinase PAK 3 (Homo sapiens) (UniProt O75914); assay: Selectivity interaction (Kinase panel (Invitrogen)) EUB0000639a PAK3; conditions: at 200 nM
Serine/threonine-protein kinase PAK 3 (Homo sapiens), sequence (O75914 whole entry, looked up): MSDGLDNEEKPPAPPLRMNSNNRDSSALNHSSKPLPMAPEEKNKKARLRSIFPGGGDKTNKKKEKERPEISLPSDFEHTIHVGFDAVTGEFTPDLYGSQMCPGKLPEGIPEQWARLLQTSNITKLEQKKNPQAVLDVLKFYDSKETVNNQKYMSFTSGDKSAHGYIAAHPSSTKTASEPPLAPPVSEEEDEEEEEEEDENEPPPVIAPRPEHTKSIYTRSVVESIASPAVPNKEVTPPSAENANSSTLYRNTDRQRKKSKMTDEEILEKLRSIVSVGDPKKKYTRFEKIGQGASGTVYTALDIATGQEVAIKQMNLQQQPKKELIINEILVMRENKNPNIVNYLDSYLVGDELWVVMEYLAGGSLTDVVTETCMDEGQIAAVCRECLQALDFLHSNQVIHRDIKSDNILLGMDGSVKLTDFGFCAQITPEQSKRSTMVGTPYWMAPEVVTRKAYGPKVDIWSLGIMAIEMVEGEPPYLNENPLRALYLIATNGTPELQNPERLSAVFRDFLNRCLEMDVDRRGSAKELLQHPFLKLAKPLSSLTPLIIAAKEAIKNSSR

[3] = target: T2, Tyrosine-protein kinase Tec (Homo sapiens) (UniProt P42680); assay: Selectivity interaction (ActivX KiNativ screen (kinase selectivity in THP-1 cell lysates)) EUB0000639a TEC; type: subcellular; conditions: lysate, at 0.04 µM
T2 sequence (whole entry): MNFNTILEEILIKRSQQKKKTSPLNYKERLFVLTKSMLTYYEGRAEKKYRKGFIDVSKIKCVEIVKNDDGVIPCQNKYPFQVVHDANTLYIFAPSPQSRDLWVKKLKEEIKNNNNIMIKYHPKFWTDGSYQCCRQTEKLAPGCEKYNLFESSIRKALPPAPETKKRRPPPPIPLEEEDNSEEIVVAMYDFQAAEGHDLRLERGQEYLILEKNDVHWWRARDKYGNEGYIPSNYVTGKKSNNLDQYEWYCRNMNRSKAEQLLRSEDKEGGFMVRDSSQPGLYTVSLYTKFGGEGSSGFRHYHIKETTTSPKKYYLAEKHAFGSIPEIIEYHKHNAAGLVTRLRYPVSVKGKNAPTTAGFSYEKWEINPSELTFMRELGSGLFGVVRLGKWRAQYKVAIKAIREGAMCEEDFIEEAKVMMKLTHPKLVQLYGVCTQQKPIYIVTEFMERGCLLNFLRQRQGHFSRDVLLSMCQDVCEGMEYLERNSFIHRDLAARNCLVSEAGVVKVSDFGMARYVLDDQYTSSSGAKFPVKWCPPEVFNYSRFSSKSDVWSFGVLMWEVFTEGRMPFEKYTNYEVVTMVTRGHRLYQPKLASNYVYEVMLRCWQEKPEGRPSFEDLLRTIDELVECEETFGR

[4] = target: T3, Serine/threonine-protein kinase PLK4 (Homo sapiens) (UniProt O00444); assay: Selectivity interaction (Kinase panel (DSF assay)) EUB0001489b PLK4
T3 sequence (whole entry): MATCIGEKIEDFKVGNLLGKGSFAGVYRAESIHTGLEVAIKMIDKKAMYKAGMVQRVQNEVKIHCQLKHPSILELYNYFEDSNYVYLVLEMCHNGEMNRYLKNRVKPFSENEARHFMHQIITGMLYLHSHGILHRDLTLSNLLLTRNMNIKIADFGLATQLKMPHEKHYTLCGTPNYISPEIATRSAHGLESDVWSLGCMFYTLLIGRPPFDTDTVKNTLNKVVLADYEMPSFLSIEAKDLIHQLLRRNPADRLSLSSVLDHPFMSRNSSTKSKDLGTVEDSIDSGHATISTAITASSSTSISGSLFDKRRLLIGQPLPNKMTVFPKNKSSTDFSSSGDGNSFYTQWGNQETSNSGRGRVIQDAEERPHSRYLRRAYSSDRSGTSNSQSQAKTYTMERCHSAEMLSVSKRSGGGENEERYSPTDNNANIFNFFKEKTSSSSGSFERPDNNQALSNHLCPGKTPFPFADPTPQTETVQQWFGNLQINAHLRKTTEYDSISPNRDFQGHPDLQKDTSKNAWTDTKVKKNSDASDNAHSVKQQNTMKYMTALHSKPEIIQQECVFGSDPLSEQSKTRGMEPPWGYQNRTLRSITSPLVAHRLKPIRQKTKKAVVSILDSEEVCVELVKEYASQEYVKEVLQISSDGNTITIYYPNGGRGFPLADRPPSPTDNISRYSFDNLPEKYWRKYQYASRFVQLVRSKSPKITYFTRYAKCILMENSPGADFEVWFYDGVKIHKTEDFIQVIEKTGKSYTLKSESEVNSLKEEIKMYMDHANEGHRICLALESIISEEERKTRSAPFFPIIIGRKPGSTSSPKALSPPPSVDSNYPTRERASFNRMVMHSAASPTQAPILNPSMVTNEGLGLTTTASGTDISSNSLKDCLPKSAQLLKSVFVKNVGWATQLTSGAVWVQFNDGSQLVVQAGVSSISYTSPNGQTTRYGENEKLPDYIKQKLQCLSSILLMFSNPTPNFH

[5] = target: Homeodomain-interacting protein kinase 2 (Homo sapiens, UniProt Q9H2X6); assay: Selectivity interaction (KinomeScan (DiscoverX)) EUB0000092b HIPK2; conditions: at 10 µM
Homeodomain-interacting protein kinase 2, sequence (Q9H2X6 whole entry, looked up): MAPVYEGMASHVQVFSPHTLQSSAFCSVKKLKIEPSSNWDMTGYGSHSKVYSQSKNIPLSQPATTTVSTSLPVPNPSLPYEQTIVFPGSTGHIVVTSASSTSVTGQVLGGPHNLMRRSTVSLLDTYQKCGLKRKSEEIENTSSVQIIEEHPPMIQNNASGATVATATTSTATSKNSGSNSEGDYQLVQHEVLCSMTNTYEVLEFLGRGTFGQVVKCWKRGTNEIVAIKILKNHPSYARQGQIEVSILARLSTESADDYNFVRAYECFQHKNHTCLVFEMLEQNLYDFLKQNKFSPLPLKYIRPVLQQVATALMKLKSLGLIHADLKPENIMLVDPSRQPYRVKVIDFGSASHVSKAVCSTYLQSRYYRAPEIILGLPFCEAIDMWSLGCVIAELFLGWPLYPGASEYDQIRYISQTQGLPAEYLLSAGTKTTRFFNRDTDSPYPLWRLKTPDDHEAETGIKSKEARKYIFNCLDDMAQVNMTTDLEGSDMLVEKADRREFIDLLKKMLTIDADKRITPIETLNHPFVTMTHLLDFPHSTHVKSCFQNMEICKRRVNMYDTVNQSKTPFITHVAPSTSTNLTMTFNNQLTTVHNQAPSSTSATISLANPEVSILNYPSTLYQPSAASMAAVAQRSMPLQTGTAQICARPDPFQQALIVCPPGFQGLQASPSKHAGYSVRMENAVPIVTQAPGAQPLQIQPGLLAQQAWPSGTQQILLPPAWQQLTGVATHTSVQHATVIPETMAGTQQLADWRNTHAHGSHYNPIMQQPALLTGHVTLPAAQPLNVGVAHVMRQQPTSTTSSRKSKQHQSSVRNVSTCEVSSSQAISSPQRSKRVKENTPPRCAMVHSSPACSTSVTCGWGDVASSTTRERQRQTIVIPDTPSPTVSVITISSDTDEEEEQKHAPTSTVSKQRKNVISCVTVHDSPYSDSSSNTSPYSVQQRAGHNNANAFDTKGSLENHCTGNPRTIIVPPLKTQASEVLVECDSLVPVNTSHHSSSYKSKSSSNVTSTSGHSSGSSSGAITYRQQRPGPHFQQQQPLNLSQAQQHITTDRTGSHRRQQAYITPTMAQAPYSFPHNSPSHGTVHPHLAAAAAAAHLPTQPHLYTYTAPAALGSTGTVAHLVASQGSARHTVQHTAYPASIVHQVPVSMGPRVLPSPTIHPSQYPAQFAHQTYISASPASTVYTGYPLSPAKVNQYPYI

[6] = target: MAP kinase-activated protein kinase 2 (Homo sapiens, UniProt P49137); assay: Selectivity interaction (KinomeScan (DiscoverX)) EUB0000045b MAPKAPK2
MAP kinase-activated protein kinase 2, sequence (P49137 whole entry, looked up): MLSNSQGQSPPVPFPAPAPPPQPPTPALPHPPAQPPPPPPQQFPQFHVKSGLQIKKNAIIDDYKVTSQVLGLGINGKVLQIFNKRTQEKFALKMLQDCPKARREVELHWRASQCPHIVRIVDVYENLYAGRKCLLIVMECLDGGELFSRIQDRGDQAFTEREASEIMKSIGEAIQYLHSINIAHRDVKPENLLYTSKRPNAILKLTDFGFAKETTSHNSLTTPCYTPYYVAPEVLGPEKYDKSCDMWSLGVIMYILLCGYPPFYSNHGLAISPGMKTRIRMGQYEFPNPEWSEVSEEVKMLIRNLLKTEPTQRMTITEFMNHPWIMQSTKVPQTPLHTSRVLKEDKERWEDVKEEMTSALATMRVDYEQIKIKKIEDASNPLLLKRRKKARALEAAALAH

[7] = target: Ribosomal protein S6 kinase beta-1 (Homo sapiens, UniProt P23443); assay: Selectivity interaction (KinomeScan (DiscoverX)) EUB0000618a RPS6KB1; conditions: at 10 µM
Ribosomal protein S6 kinase beta-1, sequence (P23443 whole entry, looked up): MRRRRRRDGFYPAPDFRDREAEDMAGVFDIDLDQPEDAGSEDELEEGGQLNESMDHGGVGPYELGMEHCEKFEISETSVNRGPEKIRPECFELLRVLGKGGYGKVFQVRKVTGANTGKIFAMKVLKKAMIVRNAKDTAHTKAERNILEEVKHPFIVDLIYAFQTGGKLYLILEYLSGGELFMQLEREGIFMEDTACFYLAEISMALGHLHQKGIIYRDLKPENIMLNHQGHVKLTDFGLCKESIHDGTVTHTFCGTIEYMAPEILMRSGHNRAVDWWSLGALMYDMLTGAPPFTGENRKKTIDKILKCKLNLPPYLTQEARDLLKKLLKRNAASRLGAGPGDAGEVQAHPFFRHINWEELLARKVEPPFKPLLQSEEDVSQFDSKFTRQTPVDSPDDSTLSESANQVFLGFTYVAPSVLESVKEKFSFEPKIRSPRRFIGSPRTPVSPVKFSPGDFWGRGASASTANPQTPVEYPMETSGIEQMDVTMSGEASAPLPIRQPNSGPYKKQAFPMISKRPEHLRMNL

[8] = target: SRSF protein kinase 3 (Homo sapiens) (UniProt Q9UPE1); assay: Selectivity interaction (KinomeScan (DiscoverX)) EUB0000666a SRPK3; conditions: at 10 µM
SRSF protein kinase 3 (Homo sapiens), sequence (Q9UPE1 whole entry): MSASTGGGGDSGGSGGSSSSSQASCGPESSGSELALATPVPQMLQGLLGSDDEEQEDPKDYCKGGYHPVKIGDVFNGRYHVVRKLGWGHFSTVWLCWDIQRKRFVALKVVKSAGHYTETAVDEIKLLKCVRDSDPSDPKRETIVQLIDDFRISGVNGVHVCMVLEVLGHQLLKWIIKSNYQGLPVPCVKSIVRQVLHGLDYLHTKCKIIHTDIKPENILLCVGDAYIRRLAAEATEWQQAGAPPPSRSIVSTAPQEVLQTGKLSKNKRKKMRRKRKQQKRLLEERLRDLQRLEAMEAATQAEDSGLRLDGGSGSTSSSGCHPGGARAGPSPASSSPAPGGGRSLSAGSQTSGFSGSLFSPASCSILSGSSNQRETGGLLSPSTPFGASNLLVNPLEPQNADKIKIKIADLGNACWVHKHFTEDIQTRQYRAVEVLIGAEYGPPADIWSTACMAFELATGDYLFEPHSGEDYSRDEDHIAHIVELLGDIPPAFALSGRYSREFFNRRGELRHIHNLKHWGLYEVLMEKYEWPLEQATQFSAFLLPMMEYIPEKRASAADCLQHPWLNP

SMILES: COc1cc(Nc2nc(C)cc(-c3cnn4nc(OC)ccc34)n2)cc(C(F)(F)F)c1
- % of control [1]: 100%

- % of inhibition [2]: 0.439%
- % of inhibition [3]: -59.8%
SMILES: CC[C@@H]1[C@H](F)C(=O)N[C@@H]1COc1nccc2cc(C(N)=O)c(OC)cc12 [ZIMLOVISERTIB]

- dTM [4]: 4 K
SMILES: CN1CCN(C(=O)c2ccc3cc2OCCOCCNc2ccn4ncc-3c4n2)CC1

SMILES: CCC(=O)N1CCN(c2ccc(-n3c(=O)ccc4cnc5ccc(-c6cnc7ccccc7c6)cc5c43)cc2C(F)(F)F)CC1
- % of control [5]: 58%

SMILES: C=CC(=O)Nc1cc(-n2c(=O)ccc3cnc4ccc(-c5ccc(NS(C)(=O)=O)cc5)cc4c32)ccc1C
- % of control ([6]; at 1 µM): 100%
- % of control ([6]; at 10 µM): 100%

SMILES: O[C@H]1CC[C@H](Nc2ncc3nc(Nc4c(F)cc(F)cc4F)n([C@H]4CCOC4)c3n2)CC1
- % of control [7]: 80%

SMILES: O=C(NOC[C@H](O)CO)c1ccc(F)c(F)c1Nc1ccc(I)cc1F
- % of control [8]: 100%
